Laboratory results: ChEMBL document CHEMBL1201862, “PubChem BioAssay data set” (2004)
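Dose response: 5 concentrations. Exposure: 48 h. Format: 96-well plates. Endpoint: linear interpolation; highest concentration if not reached. GI50 = concentration required for 50% inhibition of growth.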 Active and inactive are the calls of the source. No stated cut-off is given here; in the data, active = GI50 up to about 1.1 µM and inactive = higher.

Assays:
Test in all cases: NCI-60 cell line screen, 48 h
786-0 = tested on: 786-0
A549 = tested on: A549
ACHN = tested on: ACHN
BT-549 = tested on: BT-549
COLO 205 = tested on: COLO 205
HL-60 = tested on: HL-60
Hs-578T = tested on: Hs-578T
MDA-MB-231 = tested on: MDA-MB-231
MDA-N = tested on: MDA-N
Malme-3M = tested on: Malme-3M
NCI-H226 = tested on: NCI-H226
NCI-H23 = tested on: NCI-H23
OVCAR-5 = tested on: OVCAR-5
OVCAR-8 = tested on: OVCAR-8
RXF 393 = tested on: RXF 393
SF-295 = tested on: SF-295
SF-539 = tested on: SF-539
TK-10 = tested on: TK-10
UO-31 = tested on: UO-31
UACC-257 = tested on: UACC-257

SMILES	GI50 (786-0)	GI50 (A549)	GI50 (ACHN)	GI50 (BT-549)	GI50 (COLO 205)	GI50 (HL-60)	GI50 (Hs-578T)	GI50 (MDA-MB-231)	GI50 (MDA-N)	GI50 (Malme-3M)	GI50 (NCI-H226)	GI50 (NCI-H23)	GI50 (OVCAR-5)	GI50 (OVCAR-8)	GI50 (RXF 393)	GI50 (SF-295)	GI50 (SF-539)	GI50 (TK-10)	GI50 (UO-31)	GI50 (UACC-257)
O=c1cc(-c2ccccc2)oc2c(-c3cc(Cl)cc4c(=O)cc(-c5ccccc5)oc34)cc(Cl)cc12	27.4 µM (inactive)	29.1 µM (inactive)	16.2 µM (inactive)	29.6 µM (inactive)	31.8 µM (inactive)	50.1 µM (inactive)	15.3 µM (inactive)	32.7 µM (inactive)	17.3 µM (inactive)	27 µM (inactive)	21.5 µM (inactive)	25 µM (inactive)	37.9 µM (inactive)	28.9 µM (inactive)	26.2 µM (inactive)	22.4 µM (inactive)	17.8 µM (inactive)	45 µM (inactive)	16.8 µM (inactive)	
N#CC(NNC(=O)Cc1ccccc1)c1c(O)ccc2ccccc12 (centres undefined)	4.6 µM (inactive)	5.51 µM (inactive)	3.4 µM (inactive)	1.73 µM (inactive)	24.7 µM (inactive)	1.67 µM (inactive)	7.64 µM (inactive)	4.19 µM (inactive)	7.5 µM (inactive)	4.4 µM (inactive)	18.4 µM (inactive)	4.89 µM (inactive)	13.9 µM (inactive)	4.17 µM (inactive)	7 µM (inactive)	4.63 µM (inactive)	4.16 µM (inactive)	20.3 µM (inactive)	2.84 µM (inactive)	3.59 µM (inactive)
Cc1ccc2c(c1)C(C1Cc3c(C)cccc3C1=O)OC2=O (centres undefined)	> 100 µM (inactive)	> 100 µM (inactive)	> 100 µM (inactive)	86.5 µM (inactive)	> 100 µM (inactive)	> 100 µM (inactive)	> 100 µM (inactive)	> 100 µM (inactive)	> 100 µM (inactive)	> 100 µM (inactive)	61.5 µM (inactive)	> 100 µM (inactive)	> 100 µM (inactive)	> 100 µM (inactive)	55.3 µM (inactive)	> 100 µM (inactive)	95.5 µM (inactive)	> 100 µM (inactive)	> 100 µM (inactive)	> 100 µM (inactive)
CCCn1c2ccccc2c2ccc3c(c21)C(=O)C=CC3=O	1.84 µM (inactive)	> 10 µM (inactive)	1.83 µM (inactive)	2.21 µM (inactive)	2.39 µM (inactive)	0.938 µM (active)	7.03 µM (inactive)	2.06 µM (inactive)	2.65 µM (inactive)	1.83 µM (inactive)	6.38 µM (inactive)	2.58 µM (inactive)	> 10 µM (inactive)	2.54 µM (inactive)	2.1 µM (inactive)	> 10 µM (inactive)	> 4.8 µM (inactive)	2.09 µM (inactive)	4.06 µM (inactive)	1.78 µM (inactive)
COC(=O)C(Cc1c(-c2[nH]c3ccccc3c2CC(NC(C)=O)C(=O)OC)[nH]c2ccccc12)NC(C)=O (centres undefined)	> 100 µM (inactive)	> 100 µM (inactive)	> 100 µM (inactive)	> 100 µM (inactive)	> 100 µM (inactive)	> 100 µM (inactive)	> 100 µM (inactive)	> 100 µM (inactive)	> 100 µM (inactive)	> 100 µM (inactive)	> 100 µM (inactive)	> 100 µM (inactive)	> 100 µM (inactive)	> 100 µM (inactive)	> 100 µM (inactive)	> 100 µM (inactive)	> 100 µM (inactive)	> 100 µM (inactive)	> 100 µM (inactive)	> 100 µM (inactive)
Cc1ccc(-c2c(C#N)c(N)[nH]c(=S)c2C#N)cc1	26.1 µM (inactive)	58.5 µM (inactive)	79.3 µM (inactive)	34.1 µM (inactive)	24 µM (inactive)	17.3 µM (inactive)	18.5 µM (inactive)	34.8 µM (inactive)	18.5 µM (inactive)	26.4 µM (inactive)	23.9 µM (inactive)	39.7 µM (inactive)	> 100 µM (inactive)	46.3 µM (inactive)	18.7 µM (inactive)	32.8 µM (inactive)	> 100 µM (inactive)	73.6 µM (inactive)	40.3 µM (inactive)	34.5 µM (inactive)
Nc1nccc(Nc2ccc(S(N)(=O)=O)cc2)n1	> 100 µM (inactive)	> 100 µM (inactive)	> 100 µM (inactive)	> 100 µM (inactive)	> 100 µM (inactive)	> 100 µM (inactive)	> 100 µM (inactive)	> 100 µM (inactive)	> 100 µM (inactive)	> 100 µM (inactive)	35.2 µM (inactive)	> 100 µM (inactive)	> 100 µM (inactive)	> 100 µM (inactive)	> 100 µM (inactive)	> 100 µM (inactive)	> 100 µM (inactive)	> 100 µM (inactive)	> 100 µM (inactive)	> 100 µM (inactive)
